Results taken from patent US8993765B2, “Tetrahydro-azacarboline MCH-1 antagonists, methods of making, and uses thereof” (Albany Molecular Research, Inc., priority 2010, dated 2015).

Legend:
human MCH-1 receptor = human MCH-1 receptor (Homo sapiens (Human), UniProt Q99705); test: Binding Assay for Human Melanin-Concentrating Hormone (MCH-1) Receptor; conditions: membranes of CHO-K1 cells expressing human MCH-1 receptor; for Ki: radioligand displacement, Ki by Cheng Prusoff equation, read-out: MCH1 Ki
Experimental: Binding Assay for Human Melanin-Concentrating Hormone (MCH-1) Receptor
Evaluation of the affinity of compounds for the human MCH-1 receptor was accomplished using 4-(3,4,5-tritritiumbenzyloxy)-1-(1-(2-(pyrrolidin-1-yl)ethyl)-1H-indazol-5-yl)pyridin-2(1H)-one and membranes prepared from stable CHO-K1 cells expressing the human MCH-1 receptor obtained from Euroscreen (Batch 1138). Cell membrane homogenates (8.92 μg protein) were incubated for 60 min at 25° C. with […] of the [^3H]-labeled compound in the absence or presence of the test compound in 50 mM Tris-HCl buffer, pH 7.4. Nonspecific binding was determined in the presence of 50 μM 1-(5-(4-cyanophenyl)bicyclo[3.1.0]hexan-2-yl)-3-(4-fluoro-3-(trifluoromethyl)phenyl)-1-(3-(4-methylpiperazin-1-yl)propyl)urea. Following incubation, the samples were filtered rapidly under vacuum through Skatron 11731 filters, pre-soaked in 0.5% polyethylenimine, and washed with ice-cold 50 mM Tris-HCl buffer, pH 7.4, (wash setting 9,9,0) using a Skatron cell harvester. The filters were counted for radioactivity in a liquid scintillation counter (Tri-Carb 2100TR, Packard) using a scintillation cocktail (Ultima Gold MV, Perkin Elmer).
The results are expressed as a percent inhibition of the control radioligand specific binding. The IC50 value (concentration causing a half-maximal inhibition of control specific binding) and Hill coefficient (nH) were determined by non-linear regression analysis of the competition curve using Hill equation curve fitting. The inhibition constant (Ki) was calculated from the Cheng Prusoff equation: (Ki=IC50/(1+(L/KD)), where L=concentration of radioligand in the assay, and KD=affinity of the radioligand for the receptor.

human MCH-1 receptor, sequence (Q99705 whole entry): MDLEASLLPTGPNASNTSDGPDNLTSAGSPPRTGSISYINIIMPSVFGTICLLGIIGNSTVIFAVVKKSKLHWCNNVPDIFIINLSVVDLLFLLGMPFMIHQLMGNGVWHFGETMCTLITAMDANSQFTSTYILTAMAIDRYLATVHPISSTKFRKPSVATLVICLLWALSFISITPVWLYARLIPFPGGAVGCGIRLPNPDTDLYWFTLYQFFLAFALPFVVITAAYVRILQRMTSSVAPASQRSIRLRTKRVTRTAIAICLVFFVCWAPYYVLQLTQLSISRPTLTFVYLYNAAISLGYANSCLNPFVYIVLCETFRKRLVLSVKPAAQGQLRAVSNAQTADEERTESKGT

Structure (SMILES) | Ki (human MCH-1 receptor) | melting point | inhibition at 1 µM (human MCH-1 receptor; @ 1 uM test compound, read-out: MCH1 percent inhibition of control radioligand specific binding)
CC1Cc2c(c3ccc(-n4ccc(OCc5ccc(F)cn5)cc4=O)nc3n2C)CN1.Cl (centres unmarked) [Example 14, 1-(7,9-Dimethyl-5,7,8,9-tetrahydro-6H-pyrido[3′,4′:4,5]pyrrolo[2,3-b]pyridin-2-yl)-4-((5-fluoropyridin-2-yl)methoxy)pyridin-2(1H)-one hydrochloride] | 0.025 µM | 288 to 292 °C | 
Cl.Cn1c2c(c3ccc(-n4ccc(OCc5ccc(F)cc5F)cc4=O)nc31)CNCC2 [Example 16, 4-((2,4-Difluorophenyl)methoxy)-1-(9-methyl-5,7,8,9-tetrahydro-6H-pyrido[3′,4′:4,5]pyrrolo[2,3-b]pyridin-2-yl)pyridin-2(1H)-one hydrochloride] | 0.0083 µM | 206 to 210 °C | 
Cl.O=c1cc(OCc2ccc(F)cn2)ccn1-c1ccc2c(c1)nc1n2CCNC1 [Example 19, 4-((5-Fluoropyridin-2-yl)methoxy)-1-(1,2,3,4-tetrahydropyrazino[1,2-a]benzimidazol-8-yl)pyridin-2(1H)-one hydrochloride] |  | 245 to 255 °C | 72%
Cl.O=c1cc(OCc2ccccc2)ccn1-c1ccn2c3c(nc2c1)CCNC3 [Example 22, 4-(Benzyloxy)-1-(1,2,3,4-tetrahydropyrido[4′,3′:4,5]imidazo[1,2-a]pyridin-7-yl)pyridin-2(1H)-one hydrochloride] | 0.021 µM | 280 °C (dec.) | 
